Assays:
TFEB = test: High content screen measuring TFEB nuclear accumulation (TFEB nuclear/cytosol ratio) in BEAS-2B cells stably expressing TFEB-EGFP; format: cell-based, human; conditions: 18 hours incubation
In short: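 Readout: lowest compound concentration giving a 25% rise in nuclear/cytosol TFEB-GFP ratio, from DAPI-masked nuclear and mask-expanded cytosolic signals. Cells (BEAS-2B, TFEB-EGFP stable, ~2300–2500/well) rested 8 hours, then treated 18 hours with compound serial dilutions in 2% FBS medium before PFA fixation and DAPI staining.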

BEAS-2B cells = test: Toxicity: compound concentration needed to induce greater than 50 percent of cell loss; format: cell-based, human; conditions: 18 hours incubation
In short: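 Reported value is the concentration giving greater than 50 percent cell loss, grouped into bins (≥25 μM; between 1 and 25 μM; ≤1 μM as "+++"). Measured by high-content imaging of DAPI-stained BEAS-2B TFEB-EGFP cells fixed after 18 h compound exposure.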

Compound	efficacy (minimal compound concentration needed to increase TFEB nuclear/cytosol ratio by 25%) (TFEB)	toxicity (compound concentration needed to induce greater than 50 percent of cell loss) (BEAS-2B cells)
Cn1ncc2ccc(Nc3nc(-c4ccncc4)nc4ccccc34)cc21 [Compound 23]	+++ (“+++” equals ≤1 μM)	+ (cell loss of greater than 50 percent at a concentration that equals or is greater than 25 μM was represented as)
c1ccc2c(Nc3cccc4[nH]ncc34)nc(-c3ccncc3)nc2c1 [Compound 99]	+++ (“+++” equals ≤1 μM)	+ (cell loss of greater than 50 percent at a concentration that equals or is greater than 25 μM was represented as)
NC(=O)c1cccc(Nc2nc(-c3ccncc3)nc3ccccc23)c1 [Compound 3]	+++ (“+++” equals ≤1 μM)	+ (cell loss of greater than 50 percent at a concentration that equals or is greater than 25 μM was represented as)
Cc1ccc(-c2nc(Nc3ccc(C)c(F)c3)c3ccccc3n2)cc1 [Compound 202]	+ (“+” equals >25 μM)	+ (cell loss of greater than 50 percent at a concentration that equals or is greater than 25 μM was represented as)
c1ccc2c(Nc3ccc4[nH]ncc4c3)nc(-c3ccncc3)cc2c1 [Compound 48]	+ (“+” equals >25 μM)	+ (cell loss of greater than 50 percent at a concentration that equals or is greater than 25 μM was represented as)
Cc1nc2ccc(Nc3nc(-c4ccncc4)nc4ncccc34)cc2s1 [Compound 128]	+++ (“+++” equals ≤1 μM)	+ (cell loss of greater than 50 percent at a concentration that equals or is greater than 25 μM was represented as)
CCc1nc2ccc(Nc3nc(-c4ccncc4)nc4c(OC)cccc34)cc2s1 [Compound 362]	+ (“+” equals >25 μM)	+ (cell loss of greater than 50 percent at a concentration that equals or is greater than 25 μM was represented as)
CC(C)(C)c1nc2ccc(Nc3nc(-c4ccncc4)nc4ccccc34)cc2s1 [Compound 93]	+ (“+” equals >25 μM)	+ (cell loss of greater than 50 percent at a concentration that equals or is greater than 25 μM was represented as)
Cc1ccc(Nc2nc(-c3ccccc3Cl)nc3ccccc23)c(C)c1 [Compound 199]	+ (“+” equals >25 μM)	+ (cell loss of greater than 50 percent at a concentration that equals or is greater than 25 μM was represented as)
Cc1cccc2c(Nc3ccc4nc(C5CC5)sc4c3)nc(-c3ccncc3)nc12 [Compound 379]	+++ (“+++” equals ≤1 μM)	+ (cell loss of greater than 50 percent at a concentration that equals or is greater than 25 μM was represented as)
Cc1cccc(Nc2nc(-c3ccncc3C)nc3ccccc23)c1 [Compound 54]	+ (“+” equals >25 μM)	+ (cell loss of greater than 50 percent at a concentration that equals or is greater than 25 μM was represented as)
Fc1cc(Nc2nc(-c3cncs3)nc3ncccc23)cc2cc[nH]c12 [Compound 396]	+++ (“+++” equals ≤1 μM)	+ (cell loss of greater than 50 percent at a concentration that equals or is greater than 25 μM was represented as)
c1ccc2c(Nc3ccc4c(c3)CCN4)nc(-c3ccncc3)nc2c1 [Compound 35]	+++ (“+++” equals ≤1 μM)	++ (cell loss of greater than 50 percent at a concentration less than 25 μM and greater than 1 μM was represented as)
c1ccc(CCNc2nc(-c3ccncc3)nc3ccccc23)nc1 [Compound 171]	+ (“+” equals >25 μM)	+ (cell loss of greater than 50 percent at a concentration that equals or is greater than 25 μM was represented as)
Cc1nc2cc(Nc3nc(-c4ccncc4)nc4ccccc34)ccc2o1 [Compound 37]	++ (“++” equals between ≤25 μM and >1 μM)	+ (cell loss of greater than 50 percent at a concentration that equals or is greater than 25 μM was represented as)
Fc1cccc(CNc2nc(-c3ccncc3)nc3ccccc23)c1 [Compound 188]	+ (“+” equals >25 μM)	+ (cell loss of greater than 50 percent at a concentration that equals or is greater than 25 μM was represented as)
Fc1cccc(Nc2cc(-c3ccncc3)nc3ccccc23)c1 [Compound 69]	+ (“+” equals >25 μM)	+ (cell loss of greater than 50 percent at a concentration that equals or is greater than 25 μM was represented as)
Cc1cccc(Nc2nc(-c3ccncc3)nc3ccccc23)c1 [Compound 185]	+++ (“+++” equals ≤1 μM)	+ (cell loss of greater than 50 percent at a concentration that equals or is greater than 25 μM was represented as)
c1cnc2nc(-c3ccncc3)nc(Nc3ccc4cnsc4c3)c2c1 [Compound 136]	+++ (“+++” equals ≤1 μM)	+ (cell loss of greater than 50 percent at a concentration that equals or is greater than 25 μM was represented as)
Fc1cc(Nc2nc(-c3cncs3)nc3ccccc23)cc2cc[nH]c12 [Compound 395]	+++ (“+++” equals ≤1 μM)	+ (cell loss of greater than 50 percent at a concentration that equals or is greater than 25 μM was represented as)
c1ccc2c(NC3CCN(C4CC4)CC3)nc(-c3ccncc3)nc2c1 [Compound 175]	+ (“+” equals >25 μM)	+ (cell loss of greater than 50 percent at a concentration that equals or is greater than 25 μM was represented as)
COc1cc(C)cc(Nc2nc(-c3ccncc3)nc3ccccc23)c1 [Compound 20]	++ (“++” equals between ≤25 μM and >1 μM)	+ (cell loss of greater than 50 percent at a concentration that equals or is greater than 25 μM was represented as)
c1cnc2c(Nc3ccc4[nH]ccc4c3)nc(-c3ccncc3)nc2c1 [Compound 83]	++ (“++” equals between ≤25 μM and >1 μM)	+ (cell loss of greater than 50 percent at a concentration that equals or is greater than 25 μM was represented as)
Cc1ccc(NC(=O)Cn2c(=O)n(-c3ccccc3)c(=O)c3ccc(C(=O)NCc4ccco4)cc32)cc1 [Compound 219]	+ (“+” equals >25 μM)	+ (cell loss of greater than 50 percent at a concentration that equals or is greater than 25 μM was represented as)
O=c1c2ccccc2n(CCN2CCOCC2)c(=O)n1-c1ccccc1 [Compound 229]	+ (“+” equals >25 μM)	+ (cell loss of greater than 50 percent at a concentration that equals or is greater than 25 μM was represented as)
OCCNc1nc(-c2ccncc2)nc2ccccc12 [Compound 168]	+ (“+” equals >25 μM)	+ (cell loss of greater than 50 percent at a concentration that equals or is greater than 25 μM was represented as)
c1cc(-c2nc(Nc3ccc4cn[nH]c4c3)c3cnccc3n2)ccn1 [Compound 125]	++ (“++” equals between ≤25 μM and >1 μM)	+ (cell loss of greater than 50 percent at a concentration that equals or is greater than 25 μM was represented as)
Oc1ccc(-c2nc(Nc3ccc4[nH]ncc4c3)c3ccccc3n2)cc1 [Compound 64]	++ (“++” equals between ≤25 μM and >1 μM)	++ (cell loss of greater than 50 percent at a concentration less than 25 μM and greater than 1 μM was represented as)

Source: US12286442B2, “Methods and materials for increasing transcription factor eb polypeptide levels” (University of Pittsburgh—Of the Commonwealth System of …, priority 2019, dated 2025)
